In patent US20260347347A1, “2-AZA-AND 2-OXABICYCLO[2.1.1]HEXANE DERIVATIVES AS FACTOR XIIA ENZYME INHIBITORS” (KALVISTA PHARMACEUTICALS LIMITED, priority 2022, published 2026):

biological target: T1, Human Factor XIIa (Homo sapiens, UniProt P00748); experiment: Determination of FXIIa inhibition (in vitro IC50 assay, fluorogenic substrate H-DPro-Phe-Arg-AFC); format: biochemical; conditions: human Factor XIIa; fluorogenic substrate H-DPro-Phe-Arg-AFC at Km concentration; 5 min, 25 °C; class symbols H1/H2 for % inhibition at top concentration
T1 construct: purchased Enzyme Research Laboratories
T1 sequence (P00748 373-615 limits assumed): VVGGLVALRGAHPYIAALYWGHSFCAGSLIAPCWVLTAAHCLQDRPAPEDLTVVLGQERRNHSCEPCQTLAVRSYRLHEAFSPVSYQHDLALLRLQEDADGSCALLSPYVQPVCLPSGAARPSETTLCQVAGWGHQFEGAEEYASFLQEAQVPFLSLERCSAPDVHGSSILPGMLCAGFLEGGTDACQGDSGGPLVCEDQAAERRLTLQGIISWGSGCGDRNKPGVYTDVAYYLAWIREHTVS
T1 sequence (P00748 20-372 partner limits assumed): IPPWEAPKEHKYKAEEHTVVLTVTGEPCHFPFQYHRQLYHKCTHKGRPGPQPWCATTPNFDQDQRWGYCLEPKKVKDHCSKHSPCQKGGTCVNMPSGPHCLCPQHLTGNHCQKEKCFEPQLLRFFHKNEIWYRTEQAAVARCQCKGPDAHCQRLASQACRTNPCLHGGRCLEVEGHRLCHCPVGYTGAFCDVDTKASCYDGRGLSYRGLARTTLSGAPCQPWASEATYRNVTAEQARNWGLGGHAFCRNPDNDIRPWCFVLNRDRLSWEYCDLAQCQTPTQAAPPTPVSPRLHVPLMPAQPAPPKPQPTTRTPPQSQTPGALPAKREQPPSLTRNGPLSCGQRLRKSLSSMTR
Procedure: In vitro inhibition of Factor XIIa was determined using an IC50 assay based on standard literature methods (see e.g Baeriswyl et al., ACS Chem. Biol., 2015, 10 (8) 1861; Bouckaert et al., European Journal of Medicinal Chemistry 110 (2016) 181). Human Factor XIIa (Enzyme Research Laboratories) was incubated at 25 °C with the fluorogenic substrate H-DPro-Phe-Arg-AFC (Peptide Protein Science) and various concentrations of the test compound. Protease activity was measured by monitoring the accumulation of liberated fluorescence from the substrate over 5 min at 25 °C. The linear rate of fluorescence increase per minute was expressed as percentage (%) activity. The Km for the cleavage of the substrate by FXIIa was determined by standard transformation of the Michaelis-Menten equation. The compound inhibitor assays were performed at substrate Km concentration. IC50 values were calculated as the concentration of inhibitor giving 50% inhibition (IC50) of the uninhibited enzyme activity (100%).

SMILES	Human FXIIa inhibition (compounds that did not achieve 50% inhibition)
Cc1cc(OCC23CN(C(=O)NC4(c5ccccc5)CC4)C(CNc4cccnc4F)(C2)C3)cc(=O)n1C [Example 67, 4-(((1,6-dimethyl-2-oxo-1,2-dihydropyridin-4-yl)oxy)methyl)-1-(((2-fluoropyridin-3-yl)amino)methyl)-N-(1-phenylcyclopropyl)-2-azabicyclo[2.1.1]hexane-2-carboxamide]	H2 (>20% inhibition @ 100 μM)

same assay, conditions: human Factor XIIa; fluorogenic substrate H-DPro-Phe-Arg-AFC at Km concentration; 5 min, 25 °C; class symbols; read-out: Human FXIIa IC50

SMILES	IC50
Cn1ccc(OCC23CN(C(=O)N[C@@H](c4ccccc4)C(F)(F)F)C(CNc4cccc5c(N)nccc45)(C2)C3)cc1=O [Example 88, (S)-1-(((1-aminoisoquinolin-5-yl)amino)methyl)-4-(((1-methyl-2-oxo-1,2-dihydropyridin-4-yl)oxy)methyl)-N-(2,2,2-trifluoro-1-phenylethyl)-2-azabicyclo [2.1.1]hexane-2-carboxamide]	10 to 100 nM
Cn1ccc(OCC23CN(C(=O)NCC4(C)COC4)C(CNc4cccc5c(N)nccc45)(C2)C3)cc1=O [Example 76, 1-(((1-aminoisoquinolin-5-yl)amino)methyl)-4-(((1-methyl-2-oxo-1,2-dihydropyridin-4-yl)oxy)methyl)-N-((3-methyloxetan-3-yl)methyl)-2-azabicyclo[2.1.1]hexane-2-carboxamide]	10 to 100 nM
Cn1ccc(OCC23CN(C(=O)N4CC5(CCC5)C4)C(CNc4cccc5c(N)nccc45)(C2)C3)cc1=O [Example 51, 4-((1-(((1-aminoisoquinolin-5-yl)amino)methyl)-2-(2-azaspiro[3.3]heptane-2-carbonyl)-2-azabicyclo[2.1.1]hexan-4-yl)methoxy)-1-methylpyridin-2(1H)-one]	10 to 100 nM
COc1cccc(C2CCN(C(=O)N3CC4(COc5cc(C)n(C)c(=O)c5)CC3(CNc3cccc5c(N)nccc35)C4)C2)c1 (stereo not shown) [Example 86, 4-((1-(((1-aminoisoquinolin-5-yl)amino)methyl)-2-(3-(3-methoxyphenyl)pyrrolidine-1-carbonyl)-2-azabicyclo[2.1.1]hexan-4-yl)methoxy)-1,6-dimethylpyridin-2(1H)-one]	10 to 100 nM
Nc1nccc2c(NCC34CC(c5ncc(-c6ccccc6)o5)(CO3)C4)cccc12 [Example 1, N5-((4-(5-Phenyloxazol-2-yl)-2-oxabicyclo[2.1.1]hexan-1-yl)methyl)isoquinoline-1,5-diamine]	40000 to 100000 nM
Cn1ccc(OCC23CN(C(=O)Nc4cc(F)cc5c4OCOC5)C(CNc4cccc5c(N)nccc45)(C2)C3)cc1=O [Example 62, 1-(((1-aminoisoquinolin-5-yl)amino)methyl)-N-(6-fluoro-4H-benzo[d][1,3]dioxin-8-yl)-4-(((1-methyl-2-oxo-1,2-dihydropyridin-4-yl)oxy)methyl)-2-azabicyclo [2.1.1]hexane-2-carboxamide]	1 to 10 nM
C[C@H](C(=O)N1CC2(COc3ccn(C)c(=O)c3)CC1(CNc1cccc3c(N)nccc13)C2)c1ccccc1 [Example 13, (S)-4-((1-(((1-aminoisoquinolin-5-yl)amino)methyl)-2-(2-phenylpropanoyl)-2-azabicyclo[2.1.1]hexan-4-yl)methoxy)-1-methylpyridin-2(1H)-one]	10 to 100 nM
Cc1cc(OCC23CN(C4=NCCO4)C(CNc4cccc5c(N)nccc45)(C2)C3)cc(=O)n1C [Example 97, 4-((1-(((1-Aminoisoquinolin-5-yl)amino)methyl)-2-(4,5-dihydrooxazol-2-yl)-2-azabicyclo[2.1.1]hexan-4-yl)methoxy)-1,6-dimethylpyridin-2(1H)-one]	10 to 100 nM
Cn1ccc(OCC23CN(C(=O)NC4(c5ccccc5)COC4)C(CNc4cccc5c(N)nccc45)(C2)C3)cc1=O [Example 69, 1-(((1-aminoisoquinolin-5-yl)amino)methyl)-4-(((1-methyl-2-oxo-1,2-dihydropyridin-4-yl)oxy)methyl)-N-(3-phenyloxetan-3-yl)-2-azabicyclo [2.1.1]hexane-2-carboxamide]	1 to 10 nM
